What was measured:
AdrenergicA2A = target: T1, AdrenergicA2A (Homo sapiens, UniProt P08913); assay: GTPγS functional assay; type: biochemical; conditions: 10 μM; potentially inverse agonist
T1 sequence (P08913 1-465): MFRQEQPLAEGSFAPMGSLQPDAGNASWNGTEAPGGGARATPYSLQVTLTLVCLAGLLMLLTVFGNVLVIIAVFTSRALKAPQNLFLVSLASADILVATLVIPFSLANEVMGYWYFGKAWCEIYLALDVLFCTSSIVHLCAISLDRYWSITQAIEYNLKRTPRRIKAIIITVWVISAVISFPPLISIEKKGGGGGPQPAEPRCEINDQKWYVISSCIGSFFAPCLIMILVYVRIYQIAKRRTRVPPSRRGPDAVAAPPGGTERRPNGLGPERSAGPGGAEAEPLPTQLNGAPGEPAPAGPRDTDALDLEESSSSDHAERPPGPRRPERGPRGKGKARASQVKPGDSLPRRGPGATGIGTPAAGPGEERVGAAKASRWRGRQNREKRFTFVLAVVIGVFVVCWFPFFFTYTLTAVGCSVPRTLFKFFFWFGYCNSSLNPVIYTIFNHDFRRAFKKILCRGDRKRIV
Procedure: (§1) The compound is additionally tested in AdenosineA1, AdrenergicA2A, DopamineD25, Histamine H1-, and μ-Opiate GTPγS functional assays using a concentration of 10 μM.

AdenosineA1 = target: T2, AdenosineA1 (Homo sapiens, UniProt P30542); assay: GTPγS functional assay; type: biochemical; conditions: 10 μM
T2 sequence (P30542 1-326): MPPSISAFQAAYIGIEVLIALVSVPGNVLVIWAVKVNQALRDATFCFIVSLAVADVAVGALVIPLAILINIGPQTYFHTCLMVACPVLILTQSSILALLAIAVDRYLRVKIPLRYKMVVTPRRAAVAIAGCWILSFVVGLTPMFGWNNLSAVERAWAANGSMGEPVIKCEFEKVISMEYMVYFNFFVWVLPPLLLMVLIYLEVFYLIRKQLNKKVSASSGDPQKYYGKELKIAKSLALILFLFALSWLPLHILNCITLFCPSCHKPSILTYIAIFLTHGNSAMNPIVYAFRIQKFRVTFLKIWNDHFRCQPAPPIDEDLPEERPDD
Procedure: as §1

inhibition in GTPγS functional assay (AdrenergicA2A): marked negative inhibition
antagonist activity (AdenosineA1): 48%
Structure (SMILES): O=c1c(O)c(-c2ccc(O)c(OP(=O)(O)O)c2)oc2cc(O)cc(O)c12 [Quercetin-3′-O-phosphate]
